Reference: patent US20060204980A1, “Colorectal cancer therapies” (priority 2004, published 2006)
Entries after “also recorded” stand apart in the source; their conditions may differ.

Columns and labels:
Type in all cases: cell-based
p34^cdc2 = target: T1, p34^cdc2 (Homo sapiens, UniProt P06493); assay: H1 histone kinase assay of p34cdc2 immunoprecipitated from treated HCT116 cells
T1 construct: p34^cdc2 that was immunoprecipitated from HCT116 cells treated with vehicle for 6 to 48 hours consistently phosphorylated histone H1; endogenous in cells; host or cells: HCT116 colorectal carcinoma cells
T1 sequence (P06493 whole entry): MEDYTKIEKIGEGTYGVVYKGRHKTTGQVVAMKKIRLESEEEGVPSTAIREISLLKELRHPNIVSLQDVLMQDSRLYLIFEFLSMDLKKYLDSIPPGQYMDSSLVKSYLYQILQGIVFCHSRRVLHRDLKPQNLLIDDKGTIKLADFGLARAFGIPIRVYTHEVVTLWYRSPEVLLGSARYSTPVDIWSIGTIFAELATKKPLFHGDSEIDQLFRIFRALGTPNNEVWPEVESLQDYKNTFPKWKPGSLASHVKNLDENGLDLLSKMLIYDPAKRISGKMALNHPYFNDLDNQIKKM
T1 sequence (P14635 whole entry partner): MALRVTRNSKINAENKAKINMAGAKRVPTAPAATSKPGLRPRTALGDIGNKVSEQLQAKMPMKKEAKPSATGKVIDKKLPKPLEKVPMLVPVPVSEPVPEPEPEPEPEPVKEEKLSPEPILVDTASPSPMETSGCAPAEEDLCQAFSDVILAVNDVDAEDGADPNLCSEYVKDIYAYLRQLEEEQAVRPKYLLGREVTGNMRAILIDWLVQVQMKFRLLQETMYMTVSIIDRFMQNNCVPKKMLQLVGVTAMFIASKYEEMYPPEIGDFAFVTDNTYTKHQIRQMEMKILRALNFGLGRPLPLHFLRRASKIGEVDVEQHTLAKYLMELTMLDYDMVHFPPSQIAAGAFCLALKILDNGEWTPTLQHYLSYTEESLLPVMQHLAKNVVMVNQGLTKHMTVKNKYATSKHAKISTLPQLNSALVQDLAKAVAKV
Experimental: As shown in FIG. 2C (lanes labeled None), p34^cdc2 that was immunoprecipitated from HCT116 cells treated with vehicle for 6 to 48 hours consistently phosphorylated histone H1.

[1] = system: p53^+/+ HCT116 colorectal carcinoma cells; assay: Western blotting of p53 pathway proteins in treated p53+/+ HCT116 cells
Experimental: Cells were collected and centrifuged at 3,000 rpm for 5 minutes at 4° C., and washed in PBS (pH 7.2). The cell pellet was solubilized in lysis buffer (20 mM Tris, pH 7.2, 0.5% deoxycholate, 1% Triton X-100, 0.1% SDS, 150 mM NaCl, 1 mM EDTA) containing proteases inhibitors (Complete, Roche Applied Science) for 30 min at 4° C. The lysate was cleared by centrifugation for 15 minutes, and protein concentration was evaluated using a Bio-Rad protein assay system (Bio-Rad Laboratories, Hercules, Calif.). Samples (30 μg) were separated by SDS-polyacrylamide gel, transferred to nylon membranes (Millipore), and incubated with primary antibodies to p53 (Oncogene Research Products, FL-393, Santa Cruz Biotechnology, Inc., Santa Cruz, Calif.), p21^Waf1/Cip1 (Oncogene Research Products), XIAP (BD Transduction Laboratories), survivin (NOVUS Biologicals, Littleton, Colo.), MDM2 (Santa Cruz Biotechnology, Inc.), p14^ARF (NOVUS Biologicals), caspase-3 (Cell Signaling Technology), cleaved caspase-3 (Cell Signaling Technology), β-catenin (BD Transduction Laboratories), cyclin B1 (GNS1, Santa Cruz Biotechnology, Inc.), GSK3β (Santa Cruz Biotechnology, Inc.), or β-sactin (Sigma) with detection of reactive bands by chemiluminescence (Amersham). Cells were analyzed for hypodiploid DNA content by propidium iodide staining and flow cytometry as described in O'Connor et al., Cancer Cell, 2:43-54 (2002). Chemicals whose source is not explicitly listed were or can be obtained from Sigma.
To explore the link between GSK3β inhibition and p53 modulation, in vivo, HCT116 cells were treated with Li, TDZD or SB216763, and analyzed cells by Western blotting. p53^+/+ or p53^−/− HCT116 cells were incubated with the following GSK3β inhibitors, LiCl (Sigma, 30 mM), thiadiazolidinone-8 (TDZD) (Calbiochem, 0-20 μM), or SB216763 (Sigma, 20 μM), cells were harvested after 6-24 hours, and samples were analyzed by Western blotting as described in Example 2. […]

[2] = system: wild-type (WT) or GSK3β^−/− primary murine embryonic fibroblasts (MEF) cells; assay: Western blotting of p53 in wild-type or GSK3β-/- primary MEF cells; parameters: dose or concentration left out as unconfirmed; details: Purvalanol A, 6-24 hour
Excerpt: To confirm the link between GSK3β inhibition and p53 modulation in vivo, p53^+/+ HCT116 cells were transfected with wild-type GSK3β or a kinase-dead GSK3β dominant negative mutant (GSK3β DN mutant), previously described in Pap and Cooper, J. Biol. Chem., 273:19929-19932 (1998). Non-transformed wild-type (WT) or GSK3β^−/− primary murine embryonic fibroblasts (MEF) cells, described in Hoeflich et al., Nature, 406:86-90 (2000), were maintained in culture in DMEM supplemented with 10% FCS, 100 U/ml penicillin, and 100 μg/ml streptomycin (all from Invitrogen) in 5% CO2 at 37° C. […] Western blotting was performed as described in Example 2, to evaluate the expression of p53, p21^Waf1/Cip1 or β-actin at 6-24 hour intervals.

For CC(C)[C@H](CO)Nc1nc(Nc2cccc(Cl)c2)c2ncn(C(C)C)c2n1 [Purvalanol A], the “p34^cdc2 kinase activity (histone H1 phosphorylation)” value (p34^cdc2; 6 and 12 hours of treatment) was “no apparent inhibition of p34^cdc2 kinase activity”, the “p34^cdc2 kinase activity (histone H1 phosphorylation)” value (p34^cdc2; 24 and 48 hours of treatment) was “did appear to suppress histone H1 phosphorylation” and the “MDM2 expression (Western blot)” value ([1]; HCT116 cells) was “reduced expression”. For the same compound, the “p14^ARF expression (Western blot)” value ([1]; HCT116 cells, relative to vehicle) was “upregulation of p14^ARF”, the “XIAP expression (Western blot)” value ([1]; p53+/+ HCT116) was “no changes in the expression” and the “survivin expression (Western blot)” value ([1]; p53+/+ HCT116) was “loss of survivin expression; also recorded: time-dependent downregulation of survivin”. For the same compound, the “caspase-3 cleavage (Western blot)” value ([1]; p53+/+ HCT116, 10 μM, 6-48 hour) was “time-dependent cleavage of 32 kD proform caspase-3 to active caspase-3 fragments”, the “p21^Waf1/Cip1 expression (Western blot)” value ([1]; p53+/+ HCT116, 6-24 hours) was “upregulation of p21^Waf1/Cip1” and the “p53 expression (Western blot)” value ([1]; p53+/+ HCT116, 6-24 hours) was “time-dependent accumulation of p53”. For the same compound, the “p53 expression (Western blot)” value [2] was “did not further modulate p53 expression”.
